≈ marks a conversion by molar mass, not a printed value. Blank lines part the entries; values can stand above or below the molecule they belong to. Calls of active or inactive are those of the source. No cut-off for these calls is given here.
How the values were obtained:
[1] = system: SJSA-1; assay: Antitumor activity against human SJSA1 cells xenografted in BALB/c SLc-nu/nu mouse assessed as tumor growth inhibition at 50 mg/kg, po compound administered from day 17 to 20 (qdx4) measured on day 25 (reference value: 0%); type: functional; details: read-out: TGI
[2] = system: SJSA-1; assay: Antitumor activity against human SJSA1 cells xenografted in BALB/c SLc-nu/nu mouse assessed as increase in p21 accumulation in tumor at 12.5 mg/kg, po single dose by Western blot analysis; type: functional, organism-based; design: dose 12.5 mg/kg
[3] = Plasma concentration in mouse at 25 mg/kg, po after 6 hrs; type: ADME, organism-based; design: dose 25 mg/kg, route oral
[4] = Plasma concentration in mouse at 50 mg/kg, po after 3 hrs; type: ADME, organism-based; design: dose 50 mg/kg, route oral
[5] = Plasma concentration in mouse at 50 mg/kg, po after 6 hrs; type: ADME, organism-based; design: dose 50 mg/kg, route oral
[6] = Metabolic stability in mouse hepatic microsome assessed as compound remaining measured at 1 uM after 30 mins by LC-MS/MS analysis; type: ADME; details: liver microsomes, read-out: Stability
[7] = Cmax in mouse at 25 mg/kg, po; type: ADME, organism-based; design: dose 25 mg/kg, route oral; details: in vivo
[8] = Plasma concentration in mouse at 100 mg/kg, po after 24 hrs; type: ADME, organism-based; design: dose 100 mg/kg, route oral
[9] = Plasma concentration in mouse at 100 mg/kg, po after 19 hrs; type: ADME, organism-based; design: dose 100 mg/kg, route oral
[10] = Plasma concentration in mouse at 25 mg/kg, po after 3 hrs; type: ADME, organism-based; design: dose 25 mg/kg, route oral
[11] = Plasma concentration in mouse at 50 mg/kg, po after 19 hrs; type: ADME, organism-based; design: dose 50 mg/kg, route oral
[12] = system: SJSA-1; assay: Induction of apoptosis in human SJSA1 cells xenografted in BALB/c SLc-nu/nu mouse assessed as PARP cleavage in tumor at 12.5 mg/kg, po single dose by Western blot analysis; type: functional, organism-based; design: dose 12.5 mg/kg
[13] = AUC in mouse plasma at 25 mg/kg, po; type: ADME, organism-based; design: dose 25 mg/kg, route oral
[14] = system: SJSA-1; assay: Antitumor activity against human SJSA1 cells xenografted in BALB/c SLc-nu/nu mouse assessed as tumor growth inhibition at 12.5 mg/kg, po compound administered from day 17 to 20 (qdx4) measured on day 25 (reference value: 0%); type: functional; details: read-out: TGI
[15] = AUC in mouse plasma at 50 mg/kg, po; type: ADME, organism-based; design: dose 50 mg/kg, route oral
[16] = Cmax in mouse at 100 mg/kg, po; type: ADME, organism-based; design: dose 100 mg/kg, route oral; details: in vivo
[17] = Plasma concentration in mouse at 50 mg/kg, po after 24 hrs; type: ADME, organism-based; design: dose 50 mg/kg, route oral
[18] = system: SJSA-1; assay: Antitumor activity against human SJSA1 cells xenografted in BALB/c SLc-nu/nu mouse assessed as tumor growth inhibition at 25 mg/kg, po compound administered from day 17 to 20 (qdx4) measured on day 25 (reference value: 0%); type: functional; details: read-out: TGI
[19] = AUC in mouse plasma at 100 mg/kg, po; type: ADME, organism-based; design: dose 100 mg/kg, route oral
[20] = Plasma concentration in mouse at 100 mg/kg, po after 3 hrs; type: ADME, organism-based; design: dose 100 mg/kg, route oral
[21] = system: SJSA-1; assay: Antitumor activity against human SJSA1 cells xenografted in BALB/c SLc-nu/nu mouse assessed as tumor growth inhibition at 100 mg/kg, po compound administered from day 17 to 20 (qdx4) measured on day 25 (reference value: 0%); type: functional; details: read-out: TGI
[22] = system: SJSA-1; assay: Antiproliferative activity against human SJSA1 cells expressing wildtype p53 after 3 days by luminescent cell viability assay; type: functional; details: SJSA-1, 72 h
[23] = system: Mus musculus; assay: Toxicity in human SJSA1 cells xenografted in BALB/c SLc-nu/nu mouse assessed as body weight loss at 25 mg/kg, po compound administered from day 17 to 20 (qdx4) measured on day 25 (reference value: <0%); type: organism-based, SJSA-1; design: dose 25 mg/kg, route oral; details: in vivo
[24] = Plasma concentration in mouse at 100 mg/kg, po after 6 hrs; type: ADME, organism-based; design: dose 100 mg/kg, route oral
[25] = Solubility in phosphate buffer at 10 mM at pH 6.8 by HPLC analysis; type: physicochemical
[26] = system: Mus musculus; assay: Toxicity in human SJSA1 cells xenografted in BALB/c SLc-nu/nu mouse assessed as body weight loss at 12.5 mg/kg, po compound administered from day 17 to 20 (qdx4) measured on day 25 (reference value: <0%); type: organism-based, SJSA-1; design: dose 12.5 mg/kg, route oral; details: in vivo
[27] = system: Mus musculus; assay: Toxicity in human SJSA1 cells xenografted in BALB/c SLc-nu/nu mouse assessed as body weight loss at 100 mg/kg, po compound administered from day 17 to 20 (qdx4) measured on day 25 (reference value: <0%); type: organism-based, SJSA-1; design: dose 100 mg/kg, route oral; details: in vivo
[28] = system: SJSA-1; assay: Antitumor activity against human SJSA1 cells xenografted in BALB/c SLc-nu/nu mouse assessed as increase in p53 accumulation in tumor at 25 to 100 mg/kg, po single dose by Western blot analysis; type: functional, organism-based
[29] = Antiproliferative activity against human DLD1 cells expressing mutant p53 after 3 days by luminescent cell viability assay; type: cell-based, DLD-1
[30] = Cmax in mouse at 50 mg/kg, po; type: ADME, organism-based; design: dose 50 mg/kg, route oral; details: in vivo
[31] = system: Mus musculus; assay: Toxicity in human SJSA1 cells xenografted in BALB/c SLc-nu/nu mouse assessed as body weight loss at 50 mg/kg, po compound administered from day 17 to 20 (qdx4) measured on day 25 (reference value: <0%); type: organism-based, SJSA-1; design: dose 50 mg/kg, route oral; details: in vivo
[32] = system: SJSA-1; assay: Antitumor activity against human SJSA1 cells xenografted in BALB/c SLc-nu/nu mouse assessed as increase in Mdm2 accumulation in tumor at 12.5 mg/kg, po single dose by Western blot analysis; type: functional, organism-based; design: dose 12.5 mg/kg

Structure (SMILES): CC(C)C1=C(C(=O)N2[C@H](C)CC[C@H]2C(=O)N2CCNC3(CC3)C2)SC2=N[C@@](C)(c3ccc(Cl)nc3)[C@@H](c3ccc(Cl)c(F)c3)N21
remaining at 0.5 h, 1 µM [6]: 80% | GI50 [22]: 660 nM | solubility [25]: 330 µg/mL (≈ 491 µM) | GI50 at 72 h [29]: > 50000 nM

Structure (SMILES): CC(C)C1=C(C(=O)N2[C@H](C)CC[C@H]2C(=O)N2CCNC3(CC3)C2)SC2=N[C@@](C)(c3ccc(Cl)cc3)[C@@H](c3ccc(Cl)c(F)c3)N21
remaining at 0.5 h, 1 µM [6]: 85% | GI50 [22]: 350 nM | solubility [25]: 51 µg/mL (≈ 76 µM) | GI50 at 72 h [29]: 16700 nM

Structure (SMILES): CC(C)C1=C(C(=O)N2[C@H](C)CC[C@H]2C(=O)N2CCN(C)[C@H](C)C2)SC2=N[C@@](C)(c3ccc(Cl)cc3)[C@@H](c3ccc(Cl)cc3)N21
remaining at 0.5 h, 1 µM [6]: 74% | GI50 [22]: 850 nM

Structure (SMILES): CC(C)C1=C(C(=O)N2[C@H](C)CC[C@H]2C(=O)N2CCNC3(CC3)C2)SC2=N[C@@](C)(c3ccc(Cl)cc3)[C@@H](c3ccc(Cl)cc3)N21
remaining at 0.5 h, 1 µM [6]: 87% | GI50 [22]: 650 nM | solubility [25]: 56 µg/mL (≈ 85.8 µM) | GI50 at 72 h [29]: 16200 nM

Structure (SMILES): CC(C)C1=C(C(=O)N2[C@H](C)CC[C@H]2C(=O)N2CCN(C)C3(CC3)C2)SC2=N[C@@](C)(c3ccc(Cl)cc3)[C@@H](c3ccc(Cl)cc3)N21
remaining at 0.5 h, 1 µM [6]: 41% | GI50 [22]: 1080 nM | solubility [25]: 38 µg/mL (≈ 57 µM) | GI50 at 72 h [29]: 17200 nM

Stronger by GI50 [22], values ahead:

remaining at 0.5 h, 1 µM [6]: 100% | GI50 [22]: 240 nM | solubility [25]: 720 µg/mL (≈ 1050 µM)
Structure (SMILES): CC(C)C1=C(C(=O)N2[C@H](C)CC[C@H]2C(=O)N2CC3(CC3)NC[C@@H]2C)SC2=N[C@@](C)(c3ccc(Cl)nc3)[C@@H](c3ccc(Cl)c(F)c3)N21
GI50 at 72 h [29]: > 50000 nM

concentration at 6 h [3]: 3600 ng/mL | concentration at 3 h [4]: 15900 ng/mL | concentration at 6 h [5]: 12400 ng/mL | remaining at 0.5 h, 1 µM [6]: 84% | Cmax [7]: 6000 ng/mL | concentration at 24 h [8]: 10 ng/mL | concentration at 19 h [9]: 160 ng/mL | concentration at 3 h [10]: 6000 ng/mL | concentration at 19 h [11]: 10 ng/mL | AUC [13]: 47.1 µg·h/mL | AUC [15]: 147 µg·h/mL | Cmax [16]: 26100 ng/mL | concentration at 24 h [17]: 20 ng/mL | AUC [19]: 259 µg·h/mL | concentration at 3 h [20]: 26100 ng/mL | GI50 [22]: 170 nM | concentration at 6 h [24]: 22300 ng/mL | solubility [25]: 420 µg/mL (≈ 597 µM) | Cmax [30]: 15900 ng/mL
Structure (SMILES): CC[C@@H]1CNC2(CC2)CN1C(=O)[C@@H]1C[C@@H](F)CN1C(=O)C1=C(C(C)C)N2C(=N[C@@](C)(c3ccc(Cl)nc3)[C@H]2c2ccc(Cl)c(F)c2)S1
inhibition in vivo at 50 mg/kg [1]: 93.7% | Activity [2]: Active | Activity [12]: Active | inhibition in vivo at 12.5 mg/kg [14]: 29.7% | inhibition in vivo at 25 mg/kg [18]: 72.3% | inhibition in vivo at 100 mg/kg [21]: 96.6% | Activity [23]: 0.2% | Activity [26]: 0.2% | Activity [27]: 1.2% | Activity [28]: Active | GI50 at 72 h [29]: > 50000 nM | Activity [31]: 0.7% | Activity [32]: Active

remaining at 0.5 h, 1 µM [6]: 79% | GI50 [22]: 26 nM | solubility [25]: 640 µg/mL (≈ 928 µM)
Structure (SMILES): CC(C)C1=C(C(=O)N2C[C@H](F)C[C@H]2C(=O)N2CC3(CC3)NC[C@@H]2C)SC2=N[C@@](C)(c3ccc(Cl)nc3)[C@@H](c3ccc(Cl)c(F)c3)N21
GI50 at 72 h [29]: > 50000 nM
